Laboratory results as given in ChEMBL document CHEMBL5032530, “Discovery of Benzocyclic Sulfone Derivatives as Potent CXCR2 Antagonists for Cancer Immunotherapy” (J Med Chem, 2021).
Active and inactive are the calls of the source. The rule behind the calls is not given here.

How the values were obtained:
[1] = target: C-C chemokine receptor type 6 (Homo sapiens) (UniProt P51684); experiment: Antagonist activity against CCR6 (unknown origin) assessed as inhibition of beta-arrestin 2 recruitment at 10 microM by beta arrestin assay relative to control; type: functional; design: scale not given: the % may be the effect or the level left
C-C chemokine receptor type 6 (Homo sapiens), sequence (P51684 whole entry): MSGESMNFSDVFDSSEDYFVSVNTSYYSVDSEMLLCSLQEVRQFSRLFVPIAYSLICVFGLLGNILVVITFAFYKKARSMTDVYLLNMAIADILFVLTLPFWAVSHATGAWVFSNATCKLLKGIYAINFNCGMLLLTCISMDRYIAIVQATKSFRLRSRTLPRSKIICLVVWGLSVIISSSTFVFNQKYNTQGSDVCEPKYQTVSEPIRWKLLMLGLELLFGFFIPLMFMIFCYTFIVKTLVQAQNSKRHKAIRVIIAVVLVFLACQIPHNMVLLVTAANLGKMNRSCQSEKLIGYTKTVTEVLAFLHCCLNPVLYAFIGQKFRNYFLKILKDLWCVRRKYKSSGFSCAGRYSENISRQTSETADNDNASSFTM

[2] = AUC (0 to t) in ICR mouse at 30 mg/kg, po measured upto 48 hrs; type: ADME, organism-based; design: route oral, dose 30 mg/kg, time <=48; details: in vivo
[3] = Clearance in ICR mouse at 30 mg/kg, po measured upto 48 hrs; type: ADME, organism-based; details: ICR, in vivo
[4] = target: C-C chemokine receptor type 1 (Homo sapiens) (UniProt P32246); experiment: Agonist activity against CCR1 (unknown origin) assessed as induction of beta-arrestin 2 recruitment at 10 microM by beta arrestin assay relative to control; type: functional
C-C chemokine receptor type 1 (Homo sapiens), sequence (P32246 whole entry): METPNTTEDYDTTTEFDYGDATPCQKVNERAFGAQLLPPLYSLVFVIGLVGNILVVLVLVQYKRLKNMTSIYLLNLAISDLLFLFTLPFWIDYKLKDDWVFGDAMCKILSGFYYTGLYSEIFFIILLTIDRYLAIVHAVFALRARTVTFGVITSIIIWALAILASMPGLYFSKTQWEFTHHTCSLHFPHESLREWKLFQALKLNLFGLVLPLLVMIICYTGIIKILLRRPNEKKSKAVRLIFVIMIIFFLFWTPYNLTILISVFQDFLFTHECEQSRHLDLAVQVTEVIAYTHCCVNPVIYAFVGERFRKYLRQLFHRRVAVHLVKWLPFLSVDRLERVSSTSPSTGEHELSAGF

[5] = target: C-C chemokine receptor type 7 (Homo sapiens) (UniProt P32248); experiment: Agonist activity against CCR7 (unknown origin) assessed as induction of beta-arrestin 2 recruitment at 10 microM by beta arrestin assay relative to control; type: functional
C-C chemokine receptor type 7 (Homo sapiens), sequence (P32248 whole entry): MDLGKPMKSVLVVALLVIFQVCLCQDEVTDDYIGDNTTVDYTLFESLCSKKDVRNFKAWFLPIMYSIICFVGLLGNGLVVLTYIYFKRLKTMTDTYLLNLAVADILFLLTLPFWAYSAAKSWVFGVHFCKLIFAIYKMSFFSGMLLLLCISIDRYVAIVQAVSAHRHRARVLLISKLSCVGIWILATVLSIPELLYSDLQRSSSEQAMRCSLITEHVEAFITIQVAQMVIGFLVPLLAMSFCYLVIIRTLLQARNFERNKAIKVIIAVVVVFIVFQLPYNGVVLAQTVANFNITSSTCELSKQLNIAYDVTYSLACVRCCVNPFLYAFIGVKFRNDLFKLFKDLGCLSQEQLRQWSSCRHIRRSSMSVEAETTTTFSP

[6] = system: Panc02; experiment: Antitumour activity against mouse Panc02 cells xenografted in mouse assessed as reduction in infiltration of neutrophils into tumor tissue at 3 mg/kg, po bid measured after 15 days by flow cytometry analysis; type: functional, organism-based; details: time 15.0 day
[7] = target: C-X-C chemokine receptor type 4 (Homo sapiens) (UniProt P61073); experiment: Agonist activity against CXCR4 (unknown origin) assessed as induction of beta-arrestin 2 recruitment at 10 microM by beta arrestin assay relative to control; type: functional
C-X-C chemokine receptor type 4 (Homo sapiens), sequence (P61073 whole entry): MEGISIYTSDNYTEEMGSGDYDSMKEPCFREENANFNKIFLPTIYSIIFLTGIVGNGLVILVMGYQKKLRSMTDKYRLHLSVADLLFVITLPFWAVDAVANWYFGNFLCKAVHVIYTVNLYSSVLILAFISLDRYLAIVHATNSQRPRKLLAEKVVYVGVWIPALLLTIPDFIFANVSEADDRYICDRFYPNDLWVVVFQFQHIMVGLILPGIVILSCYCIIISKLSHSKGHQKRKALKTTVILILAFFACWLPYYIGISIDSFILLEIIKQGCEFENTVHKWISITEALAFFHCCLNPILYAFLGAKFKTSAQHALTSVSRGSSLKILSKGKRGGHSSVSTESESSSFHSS

[8] = target: C-C chemokine receptor type 1 (Homo sapiens) (UniProt P32246); experiment: Antagonist activity against CCR1 (unknown origin) assessed as inhibition of beta-arrestin 2 recruitment at 10 microM by beta arrestin assay relative to control; type: functional; design: scale not given: the % may be the effect or the level left; details: filed as antagonist
[9] = system: Panc02; experiment: Antitumour activity against mouse Panc02 cells xenografted in mouse assessed as tumour growth inhibition at 30 mg/kg, po bid […]; type: functional; details: read-out: TGI
[10] = target: C-C chemokine receptor type 5 (Homo sapiens) (UniProt P51681); experiment: Agonist activity against CCR5 (unknown origin) assessed as induction of beta-arrestin 2 recruitment at 10 microM by beta arrestin assay relative to control; type: functional
C-C chemokine receptor type 5 (Homo sapiens), sequence (P51681 whole entry, looked up): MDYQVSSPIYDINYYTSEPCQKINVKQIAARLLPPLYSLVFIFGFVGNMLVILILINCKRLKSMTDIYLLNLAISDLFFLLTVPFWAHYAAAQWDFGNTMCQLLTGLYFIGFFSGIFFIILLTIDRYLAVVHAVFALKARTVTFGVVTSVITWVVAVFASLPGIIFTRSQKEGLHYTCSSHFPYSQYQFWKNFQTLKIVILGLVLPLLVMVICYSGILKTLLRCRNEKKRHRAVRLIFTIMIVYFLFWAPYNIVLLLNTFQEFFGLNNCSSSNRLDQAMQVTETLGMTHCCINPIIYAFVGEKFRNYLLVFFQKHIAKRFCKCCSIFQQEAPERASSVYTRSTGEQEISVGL

[11] = target: C-X-C chemokine receptor type 4 (Homo sapiens) (UniProt P61073); experiment: Antagonist activity against CXCR4 (unknown origin) assessed as inhibition of beta-arrestin 2 recruitment at 10 microM by beta arrestin assay relative to control; type: functional; design: scale not given: the % may be the effect or the level left
[12] = system: SW1990; experiment: Cytotoxicity against human SW1990 cells assessed as reduction in cell viability measured after 72 hrs by CCK8 assay; type: cell-based; details: SW1990, 72 h
[13] = system: Panc02; experiment: Antitumour activity against mouse Panc02 cells xenografted in mouse assessed as change in CD11b expressing immune cells infiltration into tumor tissue using LY6C antibody at 10 mg/kg, po bid measured after 15 days by flow cytometry analysis (reference value: 20.5%); type: functional; details: time 15 day
[14] = Apparent volume of distribution in ICR mouse at 30 mg/kg, po measured upto 48 hrs; type: ADME, organism-based; details: in vivo
[15] = Half life in ICR mouse at 30 mg/kg, po measured upto 48 hrs; type: ADME, organism-based; details: ICR, in vivo
[16] = AUC (0 to infinity) in ICR mouse at 3 mg/kg, iv measured upto 48 hrs; type: ADME, organism-based; design: route intravenous, dose 3 mg/kg, time <=48; details: in vivo
[17] = system: Panc02; experiment: Antitumour activity against mouse Panc02 cells xenografted in mouse assessed as change in Gr1 expressing immune cells infiltration into tumor tissue at 30 mg/kg, po bid measured after 15 days by flow cytometry analysis (reference value: 27.4%); type: functional; details: time 15 day
[18] = AUC (0 to t) in ICR mouse at 3 mg/kg, iv measured upto 48 hrs; type: ADME, organism-based; design: route intravenous, dose 3 mg/kg, time <=48; details: in vivo
[19] = target: Chemerin-like receptor 1 (Homo sapiens) (UniProt Q99788); experiment: Agonist activity against CMKLR1 (unknown origin) assessed as induction of beta-arrestin 2 recruitment at 10 microM by beta arrestin assay relative to control; type: functional
Chemerin-like receptor 1 (Homo sapiens), sequence (Q99788 whole entry): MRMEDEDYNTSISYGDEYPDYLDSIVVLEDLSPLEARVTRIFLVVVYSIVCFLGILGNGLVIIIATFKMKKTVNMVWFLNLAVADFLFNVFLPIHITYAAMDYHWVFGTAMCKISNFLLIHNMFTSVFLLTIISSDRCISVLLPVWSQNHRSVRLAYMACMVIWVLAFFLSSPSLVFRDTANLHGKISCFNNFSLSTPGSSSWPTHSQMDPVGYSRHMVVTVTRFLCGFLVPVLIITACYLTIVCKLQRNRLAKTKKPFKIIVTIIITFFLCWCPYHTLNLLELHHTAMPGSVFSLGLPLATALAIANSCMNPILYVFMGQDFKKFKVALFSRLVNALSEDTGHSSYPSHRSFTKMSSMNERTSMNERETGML

[20] = Cmax in ICR mouse at 3 mg/kg, iv measured upto 48 hrs; type: ADME, organism-based; design: route intravenous, dose 3 mg/kg, time <=48; details: in vivo
[21] = Oral bioavailability in ICR mouse at 30 mg/kg measured upto 48 hrs; type: ADME, organism-based; details: in vivo
[22] = target: C-C chemokine receptor type 10 (Homo sapiens) (UniProt P46092); experiment: Antagonist activity against CCR10 (unknown origin) assessed as inhibition of beta-arrestin 2 recruitment at 10 microM by beta arrestin assay relative to control; type: functional; design: scale not given: the % may be the effect or the level left
C-C chemokine receptor type 10 (Homo sapiens), sequence (P46092 whole entry): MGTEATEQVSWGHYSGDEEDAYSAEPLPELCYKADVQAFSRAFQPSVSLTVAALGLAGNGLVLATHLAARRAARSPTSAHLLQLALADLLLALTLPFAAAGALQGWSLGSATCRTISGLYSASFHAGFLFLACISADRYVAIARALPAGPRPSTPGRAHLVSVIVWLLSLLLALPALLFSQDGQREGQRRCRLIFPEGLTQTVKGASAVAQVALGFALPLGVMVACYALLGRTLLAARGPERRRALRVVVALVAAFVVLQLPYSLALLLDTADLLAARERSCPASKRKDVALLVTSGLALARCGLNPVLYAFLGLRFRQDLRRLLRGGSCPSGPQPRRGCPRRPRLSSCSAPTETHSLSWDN

[23] = system: Panc02; experiment: Antitumour activity against mouse Panc02 cells xenografted in mouse assessed as tumour growth inhibition at 10 mg/kg, po bid […]; type: functional; details: read-out: TGI
[24] = system: Panc02; experiment: Antitumour activity against mouse Panc02 cells xenografted in mouse assessed as change in CD45 expressing immune cells infiltration into tumor tissue at 10 mg/kg, po bid measured after 15 days by flow cytometry analysis (reference value: 2.3%); type: functional; details: time 15 day
[25] = system: Panc02; experiment: Antitumour activity against mouse Panc02 cells xenografted in mouse assessed as reduction in infiltration of granulocytic MDSCs into tumor tissue at 30 mg/kg, po bid measured after 15 days by immunohistochemical analysis; type: functional, organism-based; details: time 15.0 day
[26] = system: BXPC-3; experiment: Cytotoxicity against human BxPC3 cells assessed as reduction in cell viability measured after 72 hrs by CCK8 assay; type: cell-based; details: BXPC-3, 72 h
[27] = system: Panc02; experiment: Antitumour activity against mouse Panc02 cells xenografted in mouse assessed as reduction in infiltration of neutrophils into tumor tissue at 30 mg/kg, po bid measured after 15 days by immunohistochemical analysis; type: functional, organism-based; details: time 15.0 day
[28] = target: Atypical chemokine receptor 3 (Homo sapiens) (UniProt P25106); experiment: Antagonist activity against CXCR7 (unknown origin) assessed as inhibition of beta-arrestin 2 recruitment at 10 microM by beta arrestin assay relative to control; type: functional; design: scale not given: the % may be the effect or the level left
Atypical chemokine receptor 3 (Homo sapiens), sequence (P25106 whole entry): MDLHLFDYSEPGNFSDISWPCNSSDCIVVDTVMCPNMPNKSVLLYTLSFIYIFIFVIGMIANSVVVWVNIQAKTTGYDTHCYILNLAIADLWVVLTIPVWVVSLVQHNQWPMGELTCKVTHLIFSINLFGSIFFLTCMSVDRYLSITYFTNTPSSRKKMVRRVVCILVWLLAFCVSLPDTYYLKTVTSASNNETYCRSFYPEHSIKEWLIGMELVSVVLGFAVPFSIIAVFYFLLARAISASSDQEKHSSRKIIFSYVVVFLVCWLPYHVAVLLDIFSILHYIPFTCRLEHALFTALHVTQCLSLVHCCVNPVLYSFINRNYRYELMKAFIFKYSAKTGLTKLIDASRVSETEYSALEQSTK

[29] = target: CX3C chemokine receptor 1 (Homo sapiens) (UniProt P49238); experiment: Agonist activity against CX3CR1 (unknown origin) assessed as induction of beta-arrestin 2 recruitment at 10 microM by beta arrestin assay relative to control; type: functional
CX3C chemokine receptor 1 (Homo sapiens), sequence (P49238 whole entry): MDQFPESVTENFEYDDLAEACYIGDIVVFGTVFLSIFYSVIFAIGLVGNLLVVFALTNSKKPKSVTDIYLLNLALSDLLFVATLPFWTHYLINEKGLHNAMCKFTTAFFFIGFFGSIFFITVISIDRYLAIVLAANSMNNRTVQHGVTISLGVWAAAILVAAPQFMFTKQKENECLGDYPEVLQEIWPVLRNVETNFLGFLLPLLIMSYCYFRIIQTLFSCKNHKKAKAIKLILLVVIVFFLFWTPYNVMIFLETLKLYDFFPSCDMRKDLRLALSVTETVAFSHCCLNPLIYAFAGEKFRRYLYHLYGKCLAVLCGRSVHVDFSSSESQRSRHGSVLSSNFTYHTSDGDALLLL

[30] = target: C-X-C chemokine receptor type 1 (Homo sapiens) (UniProt P25024); experiment: Antagonist activity against CXCR1 (unknown origin) assessed as inhibition of beta-arrestin 2 recruitment at 10 microM by beta arrestin assay relative to control; type: functional; design: scale not given: the % may be the effect or the level left
C-X-C chemokine receptor type 1 (Homo sapiens), sequence (P25024 whole entry): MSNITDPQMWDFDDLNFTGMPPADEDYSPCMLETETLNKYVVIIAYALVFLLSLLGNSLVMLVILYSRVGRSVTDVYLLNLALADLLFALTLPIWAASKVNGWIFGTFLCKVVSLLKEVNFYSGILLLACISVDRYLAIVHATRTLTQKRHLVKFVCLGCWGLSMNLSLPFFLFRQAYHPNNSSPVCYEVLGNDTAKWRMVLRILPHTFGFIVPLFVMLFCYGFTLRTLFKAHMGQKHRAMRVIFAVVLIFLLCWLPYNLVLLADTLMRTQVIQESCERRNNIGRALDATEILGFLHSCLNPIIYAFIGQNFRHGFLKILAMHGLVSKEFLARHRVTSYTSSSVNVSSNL

[31] = Cytotoxicity against human PBMC cells assessed as reduction in cell viability measured after 72 hrs by CCK8 assay; type: cell-based
[32] = target: C-C chemokine receptor type 9 (Homo sapiens) (UniProt P51686); experiment: Antagonist activity against CCR9 (unknown origin) assessed as inhibition of beta-arrestin 2 recruitment at 10 microM by beta arrestin assay relative to control; type: functional; design: scale not given: the % may be the effect or the level left
C-C chemokine receptor type 9 (Homo sapiens), sequence (P51686 whole entry): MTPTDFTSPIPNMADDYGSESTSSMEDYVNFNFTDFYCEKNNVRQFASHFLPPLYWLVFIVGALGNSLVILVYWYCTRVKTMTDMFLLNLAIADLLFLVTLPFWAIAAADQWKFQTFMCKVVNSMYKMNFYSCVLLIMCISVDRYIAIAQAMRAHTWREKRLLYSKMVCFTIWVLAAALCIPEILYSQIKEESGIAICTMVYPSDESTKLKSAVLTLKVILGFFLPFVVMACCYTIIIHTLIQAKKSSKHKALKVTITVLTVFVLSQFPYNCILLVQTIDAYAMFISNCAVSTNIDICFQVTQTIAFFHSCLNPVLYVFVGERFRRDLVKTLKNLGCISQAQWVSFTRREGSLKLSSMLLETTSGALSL

[33] = system: PANC-1; experiment: Cytotoxicity against human PanC-1 cells assessed as reduction in cell viability measured after 72 hrs by CCK8 assay; type: cell-based; details: PANC-1, 72 h
[34] = target: C-X-C chemokine receptor type 5 (Homo sapiens) (UniProt P32302); experiment: Agonist activity against CXCR5 (unknown origin) assessed as induction of beta-arrestin 2 recruitment at 10 microM by beta arrestin assay relative to control; type: functional
C-X-C chemokine receptor type 5 (Homo sapiens), sequence (P32302 whole entry): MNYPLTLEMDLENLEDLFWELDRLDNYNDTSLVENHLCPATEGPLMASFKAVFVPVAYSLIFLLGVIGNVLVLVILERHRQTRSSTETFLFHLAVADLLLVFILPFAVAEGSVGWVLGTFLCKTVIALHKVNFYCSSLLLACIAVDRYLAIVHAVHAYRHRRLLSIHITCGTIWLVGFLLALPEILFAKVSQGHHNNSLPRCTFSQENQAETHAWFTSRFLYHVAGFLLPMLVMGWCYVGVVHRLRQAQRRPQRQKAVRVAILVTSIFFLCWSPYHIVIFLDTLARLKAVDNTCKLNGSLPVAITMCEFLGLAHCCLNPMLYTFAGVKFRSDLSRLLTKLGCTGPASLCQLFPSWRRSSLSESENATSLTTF

[35] = system: Panc02; experiment: Antitumour activity against mouse Panc02 cells xenografted in mouse assessed as upregulation of infiltration of CD3+ T cell into tumor tissue treated po twice a day measured after 15 days by immunohistochemical analysis; type: functional, organism-based; details: dose 10-30 mg/kg, time 15.0 day
[36] = target: C-C chemokine receptor type 10 (Homo sapiens) (UniProt P46092); experiment: Agonist activity against CCR10 (unknown origin) assessed as induction of beta-arrestin 2 recruitment at 10 microM by beta arrestin assay relative to control; type: functional

In the case of `Cc1c(F)cccc1NC(=O)Nc1ccc2c(c1O)S(=O)(=O)CCC2`, the Activity [1] is reported as < 10%, the AUC(0-t) at 48 h [2] is reported as 218 ng·h/mL and the CL/F [3] is reported as 2190 mL/min/kg. For the same compound, the Activity [4] was < 10%, the Activity [5] was < 10% and the Activity [6] was “Active”. The Activity [7] was < 10%, the Activity [8] was 49% and the inhibition in vivo at 30 mg/kg [9] was 61.4%. The Activity [10] was < 10%, the Activity [11] was 12% and the IC50 [12] was > 10 µM. The Activity [13] was 15.6%, the Vz [14] was 939.87 L/kg and the half-life [15] was 4.94 h. The AUC(0-inf) [16] was 365 ng·h/mL, the Activity [17] was 7.5% and the AUC(0-t) at 48 h [18] was 357 ng·h/mL. The Activity [19] was < 10%, the Cmax [20] was 873 ng/mL and the bioavailability [21] was 6.1%. For the same compound, the Activity [22] was < 10%, the inhibition in vivo at 10 mg/kg [23] was 42.5% and the Activity [24] was 30.3%. For the same compound, the Activity [25] was “Active”, the IC50 [26] was > 10 µM and the Activity [27] was “Active”. For the same compound, the Activity [28] was 15%, the Activity [29] was < 10% and the Activity [30] was 33%. For the same compound, the IC50 [31] was > 10 µM, the Activity [32] was 14% and the IC50 [33] was > 10 µM. The Activity [34] was < 10%, the Activity [35] was “Dose-Dependent Effect” and the Activity [36] was < 10%.
